Assay results: article PMC12406253, “Exploration of the Neuromodulatory Properties of Fyn and GSK-3β Kinases Exploiting 7‑Azaindole-Based Inhibitors” (Journal of Medicinal Chemistry, 2025)

Columns and labels:
[1] = target: T1, ALK(h) (Homo sapiens, UniProt Q9UM73); experiment: Eurofins KinaseProfiler radiometric kinase assay; format: biochemical; conditions: read-out: ALK(h) % Residual activity
T1 construct: purchased Eurofins KinaseProfiler (Eurofins Cerep)

[2] = target: T2, Rse(h) (Homo sapiens, UniProt Q06418); experiment: Eurofins KinaseProfiler radiometric kinase assay; format: biochemical; conditions: read-out: Rse(h) % Residual activity
T2 construct: purchased Eurofins (Eurofins Cerep) KinaseProfiler

[3] = target: T3, CDK6/cyclinD3(h) (Homo sapiens, UniProt Q00534); experiment: Eurofins KinaseProfiler radiometric kinase assay; format: biochemical; conditions: read-out: CDK6/cyclinD3(h) % Residual activity
T3 construct: purchased Eurofins KinaseProfiler (Eurofins Cerep)

[4] = target: T4, SAPK2a(h) (Homo sapiens, UniProt Q16539); experiment: Eurofins KinaseProfiler radiometric kinase assay; format: biochemical; conditions: read-out: SAPK2a(h) % Residual activity
T4 construct: purchased Eurofins (Eurofins Cerep) KinaseProfiler

[5] = target: T5, PI3 Kinase (p110δ/p85α)(h) (Homo sapiens, UniProt O00329); experiment: Eurofins KinaseProfiler radiometric kinase assay; format: biochemical; conditions: read-out: PI3 Kinase (p110δ/p85α)(h) % Residual activity
T5 construct: purchased Eurofins (Eurofins Cerep) KinaseProfiler

[6] = system: primary rat cerebellar granule neurons (CGNs); experiment: Neuroprotection in CGNs, serum/potassium deprivation (MTT); format: cell-based; conditions: 5, 10, and 25 μM, 48 h
Source text: First, we evaluated the neuroprotective properties of the selected compounds in the same cell line, once the expression of Fyn and GSK-3β in this cellular model was verified (Figure S2), after a serum/potassium deprivation experiment, which simulates physiological aging (and mortality), triggering around 20% of cell death. In particular, 7 days differentiated CGNs were exposed to serum-free BME medium with low extracellular concentration of K^+ ions and treated at selected doses (i.e., 5, 10, and 25 μM) of compounds for 48 h. Neuronal viability was then determined with an MTT assay.
To evaluate the neuroprotective effect of our compounds, we tested increasing concentrations (5 μM, 10 μM, 25 μM) of compounds of interest in differentiated CGNs switched to serum-free BME medium with 5 mM KCl (serum-potassium deprivation) for 48 h to mimic in vitro the naturally occurring death of granule cells. Neuroprotection was evaluated through MTT assay.
For MTT assay, thiazolyl blue was added to the culture medium at a final concentration of 0.1 mg/mL. Following a 20 min incubation at 37 °C in the dark, the MTT precipitate was dissolved in 0.1 M Tris–HCl pH 7.5 buffer containing 5% Triton X-100 (all from Sigma-Aldrich) and absorbance was read at 570 nm in a microplate spectrophotometric reader (Bio-Rad).

[7] = target: T6, Fyn(h) (Homo sapiens, UniProt P06241); experiment: Eurofins KinaseProfiler radiometric kinase assay; format: biochemical; conditions: for Fyn inhibition: 10 µM; for remaining activity at 10 µM: read-out: Fyn(h) % Residual activity
T6 construct: purchased Eurofins KinaseProfiler (Eurofins Cerep)

[8] = target: T7, Pim-1(h) (Homo sapiens, UniProt P11309); experiment: Eurofins KinaseProfiler radiometric kinase assay; format: biochemical; conditions: read-out: Pim-1(h) % Residual activity
T7 construct: purchased Eurofins KinaseProfiler (Eurofins Cerep)

[9] = target: T8, PKCθ(h) (Homo sapiens, UniProt Q04759); experiment: Eurofins KinaseProfiler radiometric kinase assay; format: biochemical; conditions: read-out: PKCθ(h) % Residual activity
T8 construct: purchased Eurofins KinaseProfiler (Eurofins Cerep)

[10] = target: T9, PKA(h) (Homo sapiens, UniProt P17612); experiment: Eurofins KinaseProfiler radiometric kinase assay; format: biochemical; conditions: for remaining activity at 10 µM: read-out: PKA(h) % Residual activity
T9 construct: purchased Eurofins KinaseProfiler (Eurofins Cerep)

[11] = target: T10, SRPK1(h) (Homo sapiens, UniProt Q96SB4); experiment: Eurofins KinaseProfiler radiometric kinase assay; format: biochemical; conditions: read-out: SRPK1(h) % Residual activity
T10 construct: purchased Eurofins (Eurofins Cerep) KinaseProfiler

[12] = target: T11, PI3 Kinase (p110β/p85α)(h) (Homo sapiens, UniProt P42338); experiment: Eurofins KinaseProfiler radiometric kinase assay; format: biochemical; conditions: read-out: PI3 Kinase (p110β/p85α)(h) % Residual activity
T11 construct: purchased Eurofins (Eurofins Cerep) KinaseProfiler

[13] = system: immortalized murine microglia N9; experiment: Immunomodulation in LPS-treated N9 microglia, Western blot of iNOS and TREM2; conditions: 2.5 and 5 μM; 100 ng/mL LPS, 24 h
Procedure: To gain a conclusive answer on the potential role of these kinase inhibitors in counteracting neuroinflammatory processes, after the verified induced astrocytic polarization, the ability of selected compounds to modulate inflammatory response was analyzed by favoring the immunomodulatory switch from neurotoxic M1 phenotype of microglia to phagocytic and neuroprotective M2 phenotype, evaluating inducible nitric oxide synthase (iNOS) and TREM2 as M1 and M2 markers (Figure ).
The microglial phenotype was evaluated through Western blot analysis of the pro-inflammatory iNOS and anti-inflammatory-TREM2 markers.

[14] = target: T12, CHK1(h) (Homo sapiens, UniProt O14757); experiment: Eurofins KinaseProfiler radiometric kinase assay; format: biochemical; conditions: read-out: CHK1(h) % Residual activity
T12 construct: purchased Eurofins KinaseProfiler (Eurofins Cerep)

[15] = target: T13, PAK2(h) (Homo sapiens, UniProt Q13177); experiment: Eurofins KinaseProfiler radiometric kinase assay; format: biochemical; conditions: read-out: PAK2(h) % Residual activity
T13 construct: purchased Eurofins KinaseProfiler (Eurofins Cerep)

[16] = target: T14, PI3 Kinase (p110α/p85α)(h) (Homo sapiens, UniProt P42336); experiment: Eurofins KinaseProfiler radiometric kinase assay; format: biochemical; conditions: read-out: PI3 Kinase (p110α/p85α)(h) % Residual activity
T14 construct: purchased Eurofins (Eurofins Cerep) KinaseProfiler

[17] = target: T15, CDK9/cyclin T1(h) (Homo sapiens, UniProt P50750); experiment: Eurofins KinaseProfiler radiometric kinase assay; format: biochemical; conditions: for remaining activity at 10 µM: read-out: CDK9/cyclin T1(h) % Residual activity
T15 construct: purchased Eurofins KinaseProfiler (Eurofins Cerep)

[18] = target: T16, MEK1(h) (Homo sapiens, UniProt Q02750); experiment: Eurofins KinaseProfiler radiometric kinase assay; format: biochemical; conditions: read-out: MEK1(h) % Residual activity
T16 construct: purchased Eurofins KinaseProfiler (Eurofins Cerep)

[19] = target: T17, Rsk1(h) (Homo sapiens, UniProt Q15418); experiment: Eurofins KinaseProfiler radiometric kinase assay; format: biochemical; conditions: for remaining activity at 10 µM: read-out: Rsk1(h) % Residual activity
T17 construct: purchased Eurofins (Eurofins Cerep) KinaseProfiler

[20] = target: T18, Plk3(h) (Homo sapiens, UniProt Q9H4B4); experiment: Eurofins KinaseProfiler radiometric kinase assay; format: biochemical; conditions: read-out: Plk3(h) % Residual activity
T18 construct: purchased Eurofins KinaseProfiler (Eurofins Cerep)

[21] = target: T19, CDK2/cyclinA(h) (Homo sapiens, UniProt P24941); experiment: Eurofins KinaseProfiler radiometric kinase assay; format: biochemical; conditions: read-out: CDK2/cyclinA(h) % Residual activity
T19 construct: purchased Eurofins KinaseProfiler (Eurofins Cerep)

[22] = target: T20, IKKα(h) (Homo sapiens, UniProt O15111); experiment: Eurofins KinaseProfiler radiometric kinase assay; format: biochemical; conditions: read-out: IKKα(h) % Residual activity
T20 construct: purchased Eurofins KinaseProfiler (Eurofins Cerep)

[23] = target: T21, IGF-1R(h) (Homo sapiens, UniProt P08069); experiment: Eurofins KinaseProfiler radiometric kinase assay; format: biochemical; conditions: read-out: IGF-1R(h) % Residual activity
T21 construct: purchased Eurofins KinaseProfiler (Eurofins Cerep)

T6 sequence (P06241 whole entry): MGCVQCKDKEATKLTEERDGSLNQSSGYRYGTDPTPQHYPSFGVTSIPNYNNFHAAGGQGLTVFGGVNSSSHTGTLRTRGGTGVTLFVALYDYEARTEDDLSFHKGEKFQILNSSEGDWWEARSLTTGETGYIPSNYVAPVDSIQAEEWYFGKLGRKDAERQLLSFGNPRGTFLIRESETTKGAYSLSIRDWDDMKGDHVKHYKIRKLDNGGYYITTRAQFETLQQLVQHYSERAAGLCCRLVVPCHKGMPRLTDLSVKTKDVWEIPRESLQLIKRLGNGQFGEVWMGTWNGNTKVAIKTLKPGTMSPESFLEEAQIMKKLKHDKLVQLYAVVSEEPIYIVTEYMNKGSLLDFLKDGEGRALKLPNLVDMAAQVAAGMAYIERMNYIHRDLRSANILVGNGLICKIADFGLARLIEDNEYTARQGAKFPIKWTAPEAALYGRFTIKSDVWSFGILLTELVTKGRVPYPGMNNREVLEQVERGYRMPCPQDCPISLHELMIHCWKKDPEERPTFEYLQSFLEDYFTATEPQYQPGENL
T15 sequence (P50750 whole entry): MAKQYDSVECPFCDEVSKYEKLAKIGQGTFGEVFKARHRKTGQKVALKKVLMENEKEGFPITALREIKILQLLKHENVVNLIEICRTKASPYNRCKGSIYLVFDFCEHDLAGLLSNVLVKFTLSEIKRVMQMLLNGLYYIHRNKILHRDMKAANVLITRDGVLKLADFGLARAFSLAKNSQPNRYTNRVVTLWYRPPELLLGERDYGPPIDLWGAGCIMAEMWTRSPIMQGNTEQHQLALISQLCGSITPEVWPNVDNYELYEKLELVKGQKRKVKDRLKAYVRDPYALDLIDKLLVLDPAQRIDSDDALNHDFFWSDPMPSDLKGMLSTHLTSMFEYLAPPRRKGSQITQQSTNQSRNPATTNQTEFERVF
T15 sequence (O60563 whole entry partner): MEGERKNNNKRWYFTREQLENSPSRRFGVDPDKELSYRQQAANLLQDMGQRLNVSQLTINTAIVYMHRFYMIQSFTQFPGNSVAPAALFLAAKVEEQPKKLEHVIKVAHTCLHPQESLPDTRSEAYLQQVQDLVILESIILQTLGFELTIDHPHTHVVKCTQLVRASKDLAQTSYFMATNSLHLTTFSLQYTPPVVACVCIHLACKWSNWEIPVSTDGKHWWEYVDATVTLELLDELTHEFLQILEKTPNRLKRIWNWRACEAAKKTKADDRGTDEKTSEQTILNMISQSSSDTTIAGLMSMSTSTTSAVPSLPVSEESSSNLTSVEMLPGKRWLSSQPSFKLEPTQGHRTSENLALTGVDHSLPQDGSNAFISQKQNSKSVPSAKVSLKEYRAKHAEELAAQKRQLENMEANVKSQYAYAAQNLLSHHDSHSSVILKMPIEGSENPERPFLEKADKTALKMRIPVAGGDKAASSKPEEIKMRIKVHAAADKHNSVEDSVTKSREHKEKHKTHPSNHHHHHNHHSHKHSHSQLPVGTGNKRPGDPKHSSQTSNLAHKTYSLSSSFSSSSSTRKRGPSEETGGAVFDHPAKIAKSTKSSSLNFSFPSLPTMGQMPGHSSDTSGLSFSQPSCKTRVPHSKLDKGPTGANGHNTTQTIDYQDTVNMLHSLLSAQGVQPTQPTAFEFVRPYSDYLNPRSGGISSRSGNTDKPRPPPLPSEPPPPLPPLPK
T17 sequence (Q15418 whole entry): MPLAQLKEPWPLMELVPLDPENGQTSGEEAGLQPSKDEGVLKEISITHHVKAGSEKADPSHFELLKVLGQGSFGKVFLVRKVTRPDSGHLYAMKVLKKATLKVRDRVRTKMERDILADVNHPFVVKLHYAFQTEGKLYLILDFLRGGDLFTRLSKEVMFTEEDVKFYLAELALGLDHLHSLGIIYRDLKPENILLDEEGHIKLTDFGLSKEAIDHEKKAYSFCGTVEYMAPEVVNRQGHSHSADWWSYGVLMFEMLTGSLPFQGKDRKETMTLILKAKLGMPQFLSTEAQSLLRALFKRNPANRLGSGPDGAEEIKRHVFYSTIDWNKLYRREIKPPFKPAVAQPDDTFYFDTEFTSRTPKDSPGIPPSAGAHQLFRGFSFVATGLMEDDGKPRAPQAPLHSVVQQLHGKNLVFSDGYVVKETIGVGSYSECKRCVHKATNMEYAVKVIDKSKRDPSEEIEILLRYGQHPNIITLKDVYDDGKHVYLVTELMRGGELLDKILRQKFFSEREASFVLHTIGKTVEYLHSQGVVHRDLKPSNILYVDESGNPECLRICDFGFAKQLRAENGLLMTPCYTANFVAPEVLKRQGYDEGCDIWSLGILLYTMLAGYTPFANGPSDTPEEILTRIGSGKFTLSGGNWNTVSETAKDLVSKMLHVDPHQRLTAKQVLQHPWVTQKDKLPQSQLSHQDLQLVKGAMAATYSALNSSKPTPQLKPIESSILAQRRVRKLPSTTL
T3 sequence (Q00534 whole entry): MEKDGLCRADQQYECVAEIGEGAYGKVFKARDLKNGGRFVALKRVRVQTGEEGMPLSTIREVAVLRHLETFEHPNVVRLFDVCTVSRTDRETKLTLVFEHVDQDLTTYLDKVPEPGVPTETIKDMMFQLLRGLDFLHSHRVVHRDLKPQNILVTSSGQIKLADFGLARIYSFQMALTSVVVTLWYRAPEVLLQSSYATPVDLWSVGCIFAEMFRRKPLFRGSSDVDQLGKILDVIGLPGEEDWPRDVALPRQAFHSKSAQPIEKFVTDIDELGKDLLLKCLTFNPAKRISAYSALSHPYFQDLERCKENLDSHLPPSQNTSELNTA
T3 sequence (P30281 whole entry partner): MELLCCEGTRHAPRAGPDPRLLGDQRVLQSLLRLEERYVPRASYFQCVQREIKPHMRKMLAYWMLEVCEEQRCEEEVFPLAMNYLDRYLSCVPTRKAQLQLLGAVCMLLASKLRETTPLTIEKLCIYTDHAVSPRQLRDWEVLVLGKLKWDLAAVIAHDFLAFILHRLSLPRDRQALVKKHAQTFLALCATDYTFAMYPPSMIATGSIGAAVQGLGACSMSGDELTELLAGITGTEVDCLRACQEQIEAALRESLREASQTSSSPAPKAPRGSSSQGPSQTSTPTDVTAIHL
T10 sequence (Q96SB4 whole entry): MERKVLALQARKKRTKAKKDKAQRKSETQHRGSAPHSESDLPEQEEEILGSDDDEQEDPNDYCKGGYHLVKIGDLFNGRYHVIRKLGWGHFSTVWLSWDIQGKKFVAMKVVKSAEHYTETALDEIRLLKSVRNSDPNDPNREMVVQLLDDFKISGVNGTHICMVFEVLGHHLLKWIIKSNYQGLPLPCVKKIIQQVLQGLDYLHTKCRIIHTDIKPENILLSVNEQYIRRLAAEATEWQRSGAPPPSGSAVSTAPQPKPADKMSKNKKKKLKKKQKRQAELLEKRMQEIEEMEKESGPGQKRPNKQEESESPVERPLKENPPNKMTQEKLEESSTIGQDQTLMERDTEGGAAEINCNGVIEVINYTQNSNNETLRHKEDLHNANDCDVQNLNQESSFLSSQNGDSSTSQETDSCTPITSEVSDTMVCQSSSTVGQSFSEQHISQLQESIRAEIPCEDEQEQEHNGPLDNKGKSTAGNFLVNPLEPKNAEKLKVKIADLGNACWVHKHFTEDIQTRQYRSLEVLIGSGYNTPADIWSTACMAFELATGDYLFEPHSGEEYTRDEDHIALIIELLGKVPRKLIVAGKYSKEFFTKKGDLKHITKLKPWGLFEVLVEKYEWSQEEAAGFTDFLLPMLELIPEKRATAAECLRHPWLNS
T12 sequence (O14757 whole entry): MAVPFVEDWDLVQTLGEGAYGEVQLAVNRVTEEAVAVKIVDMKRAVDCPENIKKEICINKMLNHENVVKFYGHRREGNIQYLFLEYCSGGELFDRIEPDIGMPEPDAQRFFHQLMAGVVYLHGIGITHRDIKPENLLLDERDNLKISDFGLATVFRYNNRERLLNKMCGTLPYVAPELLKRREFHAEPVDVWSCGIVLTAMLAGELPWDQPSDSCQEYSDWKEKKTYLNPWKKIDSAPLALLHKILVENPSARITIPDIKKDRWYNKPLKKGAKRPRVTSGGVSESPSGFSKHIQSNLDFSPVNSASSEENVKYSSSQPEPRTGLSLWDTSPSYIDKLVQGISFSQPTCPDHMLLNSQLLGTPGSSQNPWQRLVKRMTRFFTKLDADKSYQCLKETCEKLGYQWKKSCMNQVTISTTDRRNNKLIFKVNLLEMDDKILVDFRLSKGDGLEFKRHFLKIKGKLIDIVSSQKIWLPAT
T7 sequence (P11309 whole entry): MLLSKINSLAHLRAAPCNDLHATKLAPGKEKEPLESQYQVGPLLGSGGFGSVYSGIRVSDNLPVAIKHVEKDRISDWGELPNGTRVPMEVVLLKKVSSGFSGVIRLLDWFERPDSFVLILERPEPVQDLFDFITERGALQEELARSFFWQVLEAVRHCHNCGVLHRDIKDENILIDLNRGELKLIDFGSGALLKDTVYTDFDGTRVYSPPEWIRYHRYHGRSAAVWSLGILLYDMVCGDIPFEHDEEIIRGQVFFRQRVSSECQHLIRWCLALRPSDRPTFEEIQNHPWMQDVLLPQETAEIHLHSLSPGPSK
T13 sequence (Q13177 whole entry): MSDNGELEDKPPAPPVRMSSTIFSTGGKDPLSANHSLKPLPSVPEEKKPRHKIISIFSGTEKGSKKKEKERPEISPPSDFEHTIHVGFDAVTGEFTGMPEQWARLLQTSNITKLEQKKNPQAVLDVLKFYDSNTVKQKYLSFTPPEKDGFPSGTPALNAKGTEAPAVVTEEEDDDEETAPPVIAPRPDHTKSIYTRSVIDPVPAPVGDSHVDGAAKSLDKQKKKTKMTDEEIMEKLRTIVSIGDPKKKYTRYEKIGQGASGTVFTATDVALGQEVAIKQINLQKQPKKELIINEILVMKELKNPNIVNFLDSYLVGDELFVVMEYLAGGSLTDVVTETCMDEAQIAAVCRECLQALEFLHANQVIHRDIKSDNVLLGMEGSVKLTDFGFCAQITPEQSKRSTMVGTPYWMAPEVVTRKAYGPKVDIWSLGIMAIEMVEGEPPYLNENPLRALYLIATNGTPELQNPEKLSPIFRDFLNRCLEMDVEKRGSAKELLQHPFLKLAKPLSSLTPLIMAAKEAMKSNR

Row | remaining activity at 10 µM [1] [%] | remaining activity at 10 µM [2] [%] | remaining activity at 10 µM [3] [%] | remaining activity at 10 µM [4] [%] | remaining activity at 10 µM [5] [%] | Fyn inhibition [7] | remaining activity at 10 µM [7] [%] | remaining activity at 10 µM [8] [%] | remaining activity at 10 µM [9] [%] | remaining activity at 10 µM [10] [%] | remaining activity at 10 µM [11] [%] | remaining activity at 10 µM [12] [%] | remaining activity at 10 µM [14] [%] | remaining activity at 10 µM [15] [%] | remaining activity at 10 µM [16] [%] | remaining activity at 10 µM [17] [%] | remaining activity at 10 µM [18] [%] | SMILES | Neuroprotection on CGNs (cell viability after serum/potassium deprivation) [6] | TREM2 expression (M2 marker) vs LPS [13] | iNOS expression (M1 marker) vs LPS [13] | also measured
1 | 38 | 34 | 86 | 101 | 66 | completely inhibited | -2 | 20 | 98 | 111 | 85 | 89 | 111 | 75 | 97 | 50 | 61 | Br.Cc1sc(NCc2ccccc2)nc1-c1c[nH]c2ncc(Br)cc12 [Compound 41, N-Benzyl-4-(5-bromo-1H-pyrrolo[2,3-b]pyridin-3-yl)-5-methylthiazol-2-amine Hydrobromide] | mitigate the physiological senescence and mortality rate | no significant variations | notably decreased the M1 marker at both tested concentrations | remaining activity at 10 µM [19]: 44%; remaining activity at 10 µM [20]: 89%; remaining activity at 10 µM [21]: 27%; remaining activity at 10 µM [22]: 96%; remaining activity at 10 µM [23]: 83%
2 | 61 | 98 | 90 | 103 | 97 | completely inhibited | 0 | 55 | 23 | 8 | 96 | 94 | 112 | 72 | 96 | 5 | 35 | Br.Cc1sc(NCc2ccnc(Cl)c2)nc1-c1c[nH]c2ncccc12 [Compound 43, N-((2-Chloropyridin-4-yl)methyl)-5-methyl-4-(1H-pyrrolo[2,3-b]pyridin-3-yl)thiazol-2-amine Hydrobromide] | mitigate the physiological senescence and mortality rate | no significant variations | significantly reduced the M1 marker only at the highest concentration | inhibition at 10 µM [10]: > 90%; inhibition at 10 µM [17]: > 90%; inhibition at 10 µM [19]: > 90%; remaining activity at 10 µM [19]: 3%; remaining activity at 10 µM [20]: 96%; remaining activity at 10 µM [21]: 16%; remaining activity at 10 µM [22]: 99%; remaining activity at 10 µM [23]: 68%
